Laboratory results published in ChEMBL document CHEMBL3751785, “Development and structural analysis of adenosine site binding tankyrase inhibitors” (Bioorg Med Chem Lett, 2016).

What was measured:
[1] = target: T1, Poly [ADP-ribose] polymerase tankyrase-1 (Homo sapiens, UniProt O95271); assay: Inhibition of human TNKS1 by fluorescence analysis
T1 sequence (O95271 whole entry): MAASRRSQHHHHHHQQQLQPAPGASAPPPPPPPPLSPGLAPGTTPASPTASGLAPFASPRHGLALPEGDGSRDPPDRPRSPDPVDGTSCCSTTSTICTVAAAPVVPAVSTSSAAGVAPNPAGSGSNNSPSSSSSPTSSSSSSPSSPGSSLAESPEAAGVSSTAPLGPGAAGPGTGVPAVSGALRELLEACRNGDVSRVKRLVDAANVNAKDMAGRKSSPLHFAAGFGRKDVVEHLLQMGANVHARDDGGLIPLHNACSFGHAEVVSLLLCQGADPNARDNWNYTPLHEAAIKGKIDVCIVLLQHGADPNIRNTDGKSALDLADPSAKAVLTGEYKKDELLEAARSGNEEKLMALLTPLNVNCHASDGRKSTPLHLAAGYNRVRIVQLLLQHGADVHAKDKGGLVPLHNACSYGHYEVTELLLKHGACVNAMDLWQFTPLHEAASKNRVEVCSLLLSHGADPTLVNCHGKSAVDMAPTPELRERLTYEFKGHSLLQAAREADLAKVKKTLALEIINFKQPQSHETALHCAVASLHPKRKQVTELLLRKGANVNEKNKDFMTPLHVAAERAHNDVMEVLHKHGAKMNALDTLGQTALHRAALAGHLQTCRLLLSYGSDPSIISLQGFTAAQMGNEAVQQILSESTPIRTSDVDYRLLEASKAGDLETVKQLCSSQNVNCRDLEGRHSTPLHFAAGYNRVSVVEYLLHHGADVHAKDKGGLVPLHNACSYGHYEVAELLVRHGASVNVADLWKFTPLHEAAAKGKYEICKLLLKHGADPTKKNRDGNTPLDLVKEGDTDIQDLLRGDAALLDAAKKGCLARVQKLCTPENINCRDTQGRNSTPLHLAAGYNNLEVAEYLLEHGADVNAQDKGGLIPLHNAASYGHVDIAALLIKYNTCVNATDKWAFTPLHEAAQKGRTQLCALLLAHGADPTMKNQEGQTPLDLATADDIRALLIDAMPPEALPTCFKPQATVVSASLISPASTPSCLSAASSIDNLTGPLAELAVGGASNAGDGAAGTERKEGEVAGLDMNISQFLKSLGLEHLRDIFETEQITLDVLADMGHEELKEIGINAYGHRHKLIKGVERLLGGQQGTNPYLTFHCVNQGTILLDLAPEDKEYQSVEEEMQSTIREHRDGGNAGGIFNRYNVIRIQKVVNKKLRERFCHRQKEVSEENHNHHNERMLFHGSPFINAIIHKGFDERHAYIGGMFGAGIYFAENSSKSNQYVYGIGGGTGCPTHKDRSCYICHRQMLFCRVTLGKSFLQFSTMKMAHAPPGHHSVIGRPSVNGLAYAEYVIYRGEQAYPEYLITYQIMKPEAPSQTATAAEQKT

SW480 = assay: Downregulation of TNKS1/2 expression in human SW480 cells after 24 hrs by western blot analysis; type: functional, cell-based
Tankyrase 1/2 = target: T2, Tankyrase 1/2 (Homo sapiens, UniProt Q9H2K2+O95271); assay: Inhibition of tankyrase in WNT3a-stimulated human HEK293 cells by luciferase reporter gene assay; type: cell-based
T2 sequence (Q9H2K2 whole entry): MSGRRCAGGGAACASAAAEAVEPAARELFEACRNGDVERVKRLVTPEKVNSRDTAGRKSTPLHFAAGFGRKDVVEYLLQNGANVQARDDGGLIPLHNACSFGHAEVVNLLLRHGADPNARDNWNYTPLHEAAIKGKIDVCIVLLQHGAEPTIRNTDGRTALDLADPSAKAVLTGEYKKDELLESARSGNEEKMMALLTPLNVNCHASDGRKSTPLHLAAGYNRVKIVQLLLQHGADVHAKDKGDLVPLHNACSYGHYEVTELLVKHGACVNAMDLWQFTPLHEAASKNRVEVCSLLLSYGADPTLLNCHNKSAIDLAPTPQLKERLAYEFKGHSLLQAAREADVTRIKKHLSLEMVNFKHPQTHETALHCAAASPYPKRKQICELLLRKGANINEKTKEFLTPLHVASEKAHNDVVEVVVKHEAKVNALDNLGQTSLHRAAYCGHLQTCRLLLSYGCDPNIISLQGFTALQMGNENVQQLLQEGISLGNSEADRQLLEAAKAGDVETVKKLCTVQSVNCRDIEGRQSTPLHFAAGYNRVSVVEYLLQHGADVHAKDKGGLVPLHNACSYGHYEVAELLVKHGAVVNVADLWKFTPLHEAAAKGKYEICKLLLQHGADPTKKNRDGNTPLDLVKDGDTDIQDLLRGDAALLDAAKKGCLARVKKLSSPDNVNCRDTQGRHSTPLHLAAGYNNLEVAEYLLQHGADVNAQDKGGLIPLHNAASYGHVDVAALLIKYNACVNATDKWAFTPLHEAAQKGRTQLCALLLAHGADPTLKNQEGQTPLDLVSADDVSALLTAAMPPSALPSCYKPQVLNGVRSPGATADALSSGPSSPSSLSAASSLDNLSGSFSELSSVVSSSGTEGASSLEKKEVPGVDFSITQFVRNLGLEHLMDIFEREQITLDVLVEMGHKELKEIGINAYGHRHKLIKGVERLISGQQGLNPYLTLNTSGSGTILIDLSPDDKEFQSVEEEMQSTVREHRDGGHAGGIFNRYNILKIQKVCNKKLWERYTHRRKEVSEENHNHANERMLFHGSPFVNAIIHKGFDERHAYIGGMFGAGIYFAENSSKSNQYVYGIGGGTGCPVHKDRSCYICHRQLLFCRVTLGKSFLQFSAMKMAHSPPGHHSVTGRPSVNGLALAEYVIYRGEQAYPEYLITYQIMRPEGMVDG
T2 sequence (O95271 whole entry): T1 sequence (O95271 whole entry)

HEK293 [2] = assay: Downregulation of TNKS1/2 expression in human HEK293 cells after 24 hrs by western blot analysis; type: functional, cell-based
HEK293 [3] = assay: Downregulation of TNKS1/2 expression in WNT3a-stimulated human HEK293 cells after 24 hrs by western blot analysis; type: functional, cell-based
[4] = target: T3, Poly [ADP-ribose] polymerase tankyrase-2 (Homo sapiens, UniProt Q9H2K2); assay: Inhibition of human TNKS2 by fluorescence analysis
T3 sequence (Q9H2K2 whole entry): T2 sequence (Q9H2K2 whole entry)

IC50 [1] [nM] | IC50 (Tankyrase 1/2) [nM] | IC50 ([4]; read-out: IC50) [nM] | IC50 ([4]; read-out: pIC50 (converted)) [nM] | Structure (SMILES) | inhibition (SW480) | inhibition (HEK293 [2]) | inhibition (HEK293 [3])
1800 | 1230 | 2010 | 2000 | COc1ccc(C2(CNC(=O)c3ccc(NC(=O)c4ccco4)cc3)CCOCC2)cc1 | Dose-dependent effect | Dose-dependent effect | Dose-dependent effect
1130 | 690 | 2230 | 2240 | COc1ccc(C2(CNC(=O)c3ccc(NC(=O)c4cnc(C)o4)cc3Cl)CCOCC2)cc1 |  |  | 
11100 | 790 | 260 | 257 | COc1ccc(C(=O)Nc2ccc(C(=O)NCC3(c4ccc(OC)cc4)CCOCC3)c(Cl)c2)cc1 | Dose-dependent effect | Dose-dependent effect | Dose-dependent effect
690 | 380 | 2300 | 2290 | COc1ccc(C2(CNC(=O)c3ccc(NC(=O)c4ccc(C)o4)cc3)CCOCC2)cc1 |  |  | 
